Laboratory results as given in paper PMC5127787 (Frontiers in Microbiology, 2016).

Molecular target: RecA (Escherichia coli, UniProt P0A7G6)
Assay: biochemical

Sequence of RecA (P0A7G6 2-353): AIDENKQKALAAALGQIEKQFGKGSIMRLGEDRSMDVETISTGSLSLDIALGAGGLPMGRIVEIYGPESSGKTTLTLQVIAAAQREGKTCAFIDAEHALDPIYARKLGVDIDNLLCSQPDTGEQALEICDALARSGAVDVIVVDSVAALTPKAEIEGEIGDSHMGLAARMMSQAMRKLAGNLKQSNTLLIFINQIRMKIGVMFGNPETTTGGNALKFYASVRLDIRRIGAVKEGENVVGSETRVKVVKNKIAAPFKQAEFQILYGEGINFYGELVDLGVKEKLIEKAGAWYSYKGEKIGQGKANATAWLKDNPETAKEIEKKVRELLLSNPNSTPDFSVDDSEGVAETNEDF

SMILES: CN1CCN(c2ccc(N3C(=O)C=CC3=O)cc2)CC1 [AHU3]
- IC50: 7.72 µM
